Source: patent US20060258670A1, “New phenylpyridylpiperazine compounds” (priority 2005, published 2006)

Assays:
[1] = molecular target: T1, type H3 central histamine receptors (Mus musculus, UniProt P58406); assay: Cerebral levels of N^t-methylhistamine in the NMRI mouse (ex vivo, RIA); details: one hour after treatment, versus carrier
T1 construct: from tissue; host or cells: brain of living NMRI mice
Experimental: The purpose of this study, which was carried out in accordance with the method of Taylor et al. (Biochem. Pharm., 1992, 44, 1261-1267), is to evaluate the ex vivo activity of the compounds of the present invention as antagonists of type H3 central histamine receptors. […] An increase in the cerebral concentrations of N^t-methylhistamine indicates an increase in the turn-over of histamine by blockage of the type H3 central histamine receptors.
NMRI mice (18-20 g) are treated intraperitoneally or orally with compounds of the present invention or with their carrier (20 ml/kg). One hour after the pharmacological treatment, the animals are sacrificed, and their brains are removed, frozen in liquid nitrogen, weighed and homogenised in 0.1N HClO4 at 4° C. The homogenised products are centrifuged (15 000 g, 17 min, 4° C.). The supernatants are recovered and divided into aliquots. The aliquots are frozen in, liquid nitrogen and stored at −80° C. until analysis.
Determination of the cerebral levels of N^t-methylhistamine is carried out by radioimmunological assay (RIA) using an assay kit. The tissue levels of N^t-methylhistamine are expressed in […] of fresh brain. The comparison of the cerebral levels of N^t-methylhistamine between animals treated with the carrier (controls) and animals treated with compounds of the present invention is carried out by single-factor variance analysis followed, if necessary, by a complementary analysis (Dunnett's test).

[2] = system: Adult male Wistar rats; assay: Electroencephalographic recordings on freely moving rats; format: in vivo; details: Wistar rat, EEG
Experimental: Adult male Wistar rats were chronically implanted with electrodes placed over the frontal and panetal cortex. Cortical electroencephalogram (EEG) was recorded from rats placed inside cages in a sound attenuating-room. Compounds and vehicle were administered in a random order at 10:00 AM on the same days with a minimum of 3 days between each administration, allowing each rat to serve as its own control. Absolute power of slow wave delta band activity (1-4 Hz), that predominates during slow wave sleep and disappears during wakefulness and rapid eyes movement sleep, was averaged over successive periods of 30 min. Over 30 min, low and high values of slow wave delta power are signs of arousal and sleep, respectively.

T1 sequence (P58406 whole entry): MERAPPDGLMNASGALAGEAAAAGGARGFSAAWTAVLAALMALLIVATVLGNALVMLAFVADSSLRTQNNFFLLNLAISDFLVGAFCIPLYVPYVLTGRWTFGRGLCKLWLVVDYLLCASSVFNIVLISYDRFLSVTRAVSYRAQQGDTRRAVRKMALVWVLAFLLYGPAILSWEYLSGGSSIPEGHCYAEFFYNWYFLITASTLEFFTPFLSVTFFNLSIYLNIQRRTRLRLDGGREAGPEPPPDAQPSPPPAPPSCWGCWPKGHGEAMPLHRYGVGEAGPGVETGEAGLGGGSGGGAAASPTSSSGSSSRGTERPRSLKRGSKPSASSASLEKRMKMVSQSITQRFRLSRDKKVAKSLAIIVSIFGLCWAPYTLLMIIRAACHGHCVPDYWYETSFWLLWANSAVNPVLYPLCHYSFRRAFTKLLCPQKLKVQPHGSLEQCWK

| increase of endogenous cerebral concentrations of N^t-methylhistamine ([1]; 10 mg/kg PO) | increase of endogenous cerebral concentrations of N^t-methylhistamine ([1]; 3 mg/kg PO) | Structure (SMILES) | duration of significant reduction of slow wave delta power (cortical activation and arousal) ([2]; 0.3 mg/kg) | sleep latency: first slow wave sleep episode after administration ([2]; 3 mg/kg, control group 45±5 minutes) |
| --- | --- | --- | --- | --- |
| 197% | – | CCN1CCN(c2ccc(-c3ccc(S(=O)(=O)N4CCCCC4)cc3)cn2)CC1.Cl.Cl [Example 5] | – | – |
| 121% | – | CC(C)N1CCN(c2ccc(-c3ccc(S(=O)(=O)N4CCN(C)CC4)cc3)cn2)CC1.Cl.Cl.Cl [Example 9, 1-Isopropyl-4-(5-{4-[(4-methylpiperazin-1-yl)sulphonyl]phenyl}pyridin-2-yl)piperazine trihydrochloride] | – | – |
| – | 168% | CC(C)CN1CCN(c2ccc(-c3ccc(S(=O)(=O)N4CCOCC4)cc3)cn2)CC1.Cl.Cl [Example 21, 4-({4-[6-(4-Isobutylpiperazin-1-yl)pyridin-3-yl]phenyl}sulphonyl)-morpholine dihydrochloride] | – | – |

| Structure (SMILES) | increase of endogenous cerebral concentrations of N^t-methylhistamine ([1]; 10 mg/kg PO) | increase of endogenous cerebral concentrations of N^t-methylhistamine ([1]; 3 mg/kg PO) | duration of significant reduction of slow wave delta power (cortical activation and arousal) ([2]; 0.3 mg/kg) | sleep latency: first slow wave sleep episode after administration ([2]; 3 mg/kg, control group 45±5 minutes) |
| --- | --- | --- | --- | --- |
| CC(C)N1CCN(c2ccc(-c3ccc(S(=O)(=O)N4CCOCC4)cc3)cn2)CC1.Cl.Cl [Example 1] | 105% | – | 150 min | 73 ± 5 min |
